Counter-ions that a name gives are not always drawn. Like-named read-outs stand apart in the source and are kept apart here.
Legend:
[1] = molecular target: cloned human kappa receptor (Homo sapiens, UniProt P41145); experiment: biochemical; assay type: binding
[2] = test system: formalin-induced flinching; experiment: animal or person; assay type: in vivo, male Sprague-Dawley rats; conditions: for Late Phase Formalin, % @ 300 / Late Phase Formalin (i. paw), % @ 300: rat, in vivo; for inhibition in vivo at 0.3 µM: Rattus norvegicus, read-out: Formalin (% A @ 300 nM) i. paw
[3] = Table IA, read-out: Ki(nM) (3H)-Diprenorphin

Sequence of cloned human kappa receptor (P41145 whole entry): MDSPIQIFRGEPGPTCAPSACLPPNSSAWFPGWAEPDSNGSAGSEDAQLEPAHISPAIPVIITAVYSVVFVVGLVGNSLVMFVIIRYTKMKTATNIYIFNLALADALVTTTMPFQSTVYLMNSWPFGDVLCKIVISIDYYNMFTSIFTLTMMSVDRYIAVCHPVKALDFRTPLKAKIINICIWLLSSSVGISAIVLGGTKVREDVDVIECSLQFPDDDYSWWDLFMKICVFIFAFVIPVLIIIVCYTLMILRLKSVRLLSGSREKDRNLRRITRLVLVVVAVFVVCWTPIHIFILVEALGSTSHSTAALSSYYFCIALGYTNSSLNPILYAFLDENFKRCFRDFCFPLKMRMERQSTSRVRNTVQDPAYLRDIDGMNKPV

**Q.** What does the source list for CN(C(=O)Cc1ccc(Cl)c(S(N)(=O)=O)c1)[C@H](CN1CCCC1)c1ccccc1.CS(=O)(=O)O [Example 3m, 2-(3-Sulfamoyl-4-chlorophenyl)-N-methyl-N-{[1S]-1-phenyl-2-[1-pyrrolidinyl]ethyl}acetamide methanesulfonate]?
**A.** Ki ([1]; Ki (nM) [3H]-Diprenorphin κ): 5.1 nM; Late Phase Formalin, % @ 300 [2]: 65% @ 300; melting point: 220 to 222 °C

**Q.** For CNS(=O)(=O)c1cc(CC(=O)N(C)[C@H](CN2CCCC2)c2ccccc2)ccc1F.Cl [Example 3o, 2-[3-(N-Methylsulfamoyl)-4-fluorophenyl]-N-methyl-N-{[1S]-1-phenyl-2-[1-pyrrolidinyl]ethyl}acetamide hydrochloride], which Ki ([1]; Ki (nM) [3H]-Diprenorphin κ) is on record?
**A.** 30.5 nM

**Q.** What about the “Late Phase Formalin, % @ 300” value [2] of the same molecule?
**A.** 59% @ 300

**Q.** And the melting point?
**A.** 278 to 280 °C

**Q.** Which results are given for COc1ccc(CC(=O)N(C)[C@H](CN2CCCC2)c2ccccc2)cc1NS(C)(=O)=O [Example 122, 2-(3-N-Methylsulfonamido-3-amino-4-methoxyphenyl)-N-methyl-N-[(1S)-1-phenyl-2-(1-pyrrolidinyl)ethyl]acetamide methane sulfonate]?
**A.** Ki ([1]; Ki (nM) [3H]-Diprenorphin κ): 0.8 nM; Late Phase Formalin (i. paw), % @ 300 [2]: 85% @ 300

**Q.** For CC(=O)N1CCN(C(=O)Cc2ccc(Cl)c(Cl)c2)C(CN2CCC[C@H]2CO)C1 (mixture of isomers) [Example 1z, 4-Acetyl-1-[(3,4-dichlorophenyl)acetyl]-2-(R,S)-[(2-(S)-pyrrolidinemethanol)methyl]piperazine hydrochloride], which Ki [1, 3] is on record?
**A.** 102 nM

**Q.** And the inhibition in vivo at 0.3 µM [2]?
**A.** 71%

**Q.** Which results are given for CN(C(=O)Cc1ccc(O)c(N(S(C)(=O)=O)S(C)(=O)=O)c1)[C@H](CN1CCCC1)c1ccccc1 [Example 130, 2-(3-N-Bis-methylsulfonamido-3-amino-4-hydroxyphenyl)-N-methyl-N-[(1S)-1-phenyl-2-(1-pyrrolidinyl)ethyl]acetamide]?
**A.** Ki ([1]; Ki (nM) [3H]-Diprenorphin κ): 1.3 nM; Late Phase Formalin (i. paw), % @ 300 [2]: 46% @ 300

**Q.** Which results are given for COC(=O)N1CCN(C(=O)Cc2ccc(S(C)(=O)=O)cc2)C(CN2CCC[C@H]2CO)C1 (mixture of isomers) [Example 1o, Methyl-4-[(4-methylsulphonylphenyl)acetyl]-3-(R,S)-[(2-(S)-pyrrolidinemethanol)methyl]-1-piperazinecarboxylate hydrochloride]?
**A.** Ki [1, 3]: 133 nM; inhibition in vivo at 0.3 µM [2]: 41%

**Q.** Which results are given for COC(=O)CNC(=O)c1ccccc1CC(=O)N(C)[C@H](CN1CCCC1)c1ccccc1 [Example 3mm, Methyl N-[2-(2-pheny)-N-methyl-N-{[1S]-1-phenyl-2-(1-pyrrolidinyl)ethyl}acetamido]2-oxo-glycinate hydrochloride]?
**A.** Ki ([1]; Ki (nM) [3H]-Diprenorphin κ): 16.4 nM; Late Phase Formalin, % @ 300 [2]: 53% @ 300

**Q.** For COc1ccc(C(CN2CCCC2)N(C)C(=O)Cc2ccccc2NS(C)(=O)=O)cc1 (racemic) [Example 128], which Ki ([1]; Table IIIB, read-out: Ki(nM) [3H]-Diprenorphin κ) is on record?
**A.** 110 nM

**Q.** What about the “Late Phase Formalin (i. paw), % @ 300” value [2] of the same molecule?
**A.** 56% @ 300

**Q.** For COc1cc(CC(=O)N(C)[C@H](CN2CCCC2)c2ccccc2)c(S(=O)(=O)N2CCCC2)cc1OC [Example 134, 2-[2-(N-Pyrrolidinesulfamoyl)-4,5-dimethoxyphenyl]-N-methyl-N-[(1S)-1-phenyl-2-[(1-pyrrolidinyl)ethyl]]acetamide], which Ki ([1]; Ki (nM) [3H]-Diprenorphin κ) is on record?
**A.** 0.26 nM

**Q.** What about the “Late Phase Formalin (i. paw), % @ 300” value [2] of the same molecule?
**A.** 99% @ 300

**Q.** With CN(C(=O)Cc1cc2c(cc1S(=O)(=O)N(C)C)OCO2)[C@H](CN1CC[C@H](O)C1)c1ccccc1 [Example 133, 2-[2-(N-Dimethylsulfamoyl)-4,5-methylenedioxyphenyl]-N-methyl-N-[(1S)-1-phenyl-2-[1-(3S)-(3-hydroxypyrrolidinyl)ethyl]]acetamide] as the molecule, how does the Ki ([1]; read-out: Ki(nM) [3H]-Diprenorphin κ) read?
**A.** 0.64 nM

**Q.** And the “Late Phase Formalin (i. paw), % @ 300” value [2]?
**A.** 98% @ 300

**Q.** For COC(=O)N1CCN(C(=O)Cc2ccc(Cl)c(Cl)c2)C(CN2CCC[C@H]2COC(=O)Cc2ccc(Cl)c(Cl)c2)C1 (mixture of isomers) [Example 1k, Methyl-4-[(3,4-dichlorophenyl)acetyl]-3-(R,S)-[(2-(S)-pyrrolidinemethyl-3′,4′-dichlorophenyl acetate)methyl]-1-piperazinecarboxylate hydrochloride], which Ki ([1]; Ki, nM 3H-Diprenorphin) is on record?
**A.** 51.5 nM

**Q.** And the inhibition in vivo at 0.3 µM [2]?
**A.** 95%
